Counter-ions that a name gives are not always drawn.
Experiments:
human S1P1 (EDG-1) = biological target: T1, human S1P1 (EDG-1) (Homo sapiens, UniProt P21453); experiment: Intracellular calcium flux assay (agonist activity against S1P1 (EDG-1) receptor); type: cell-based; details: CHO cells expressing Gqi5 and human S1P1 (EDG-1), intracellular calcium change
T1 construct: expressed in transfected cells; host or cells: CHO-K1 cells stably expressing HA-Gqi5
Source text: The HA-Gqi5 expression plasmid, which had been produced in (2) above, was integrated into CHO-K1 cells by use of a Fugene 6 reagent (product of Roche Diagnostics K.K.), and cells of interest were selected by use of hygromycin. A CHO cell expressing HA-Gqi5 was selected through western blotting employing an anti-HA antibody, and the selected cells were cloned twice.
By use of a human S1P1 (EDG-1) cDNA clone (open biosystems, cDNA collection #4071217) as a template, human S1P1 (EDG-1) DNA was produced through PCR. This PCR product was integrated into pUC118. By means of a site-directed mutagenesis kit (product of STRATAGENE), a plasmid into which DNA having a target sequence (The Journal of Biological Chemistry Vol. 265, No. 16, 9308-9313, 1990) had been integrated was produced.
A human S1P1 (EDG-1) gene (The Journal of Biological Chemistry Vol. 265, No. 16, 9308-9313, 1990) integrated into pUC118 was digested by use of restriction enzymes, and the cut fragment was purified. The fragment was ligated with an expression plasmid pcDNA3.1/mycHisA (product of Invitrogen). The ligation mixture was integrated into E. Coli DH5α, and a positive clone was selected, whereby a S1P1 (EDG-1) expression plasmid was produced.
A S1P1 (EDG-1) expression plasmid was integrated into the CHO cells expressing HA-Gqi5, which had been produced in (3) above, by use of a Fugene 6 reagent (product of Roche Diagnostics K.K.). […] The selected cells were cloned twice.
CHO cells expressing Gqi5 protein, to which human S1P1 (EDG-1) had been introduced and which had been produced in (6) above, were seeded on a 96-well black plate with a transparent bottom surface (2.5×10^4 cell/well) and cultured overnight. The culture was washed once with a serum-free medium, and an assay buffer (calcium assay kit, product of Molecular Devices, 100 μL) containing 2.5 mM probenicid and 0.25% fatty acid-free BSA was added to the washed cells. The mixture was allowed to react at 37° C. for one hour under […] CO2. Separately, each test compound was diluted so as to attain a concentration five times the final test concentration. The diluted liquid (25 μL) was added to each well, and change in intracellular calcium concentration was measured by means of a FLEXstation II (product of Molecular Devices). The change was determined as the difference between the minimum intracellular calcium level and the peak (maximum) value thereof. A sigmoid curve was obtained from the measurements, and an EC50 value was calculated from the curve so as to evaluate agonist activity against an S1P1 (EDG-1) receptor.

[1] = system: lymphocytes in peripheral blood; experiment: Decrease in peripheral blood lymphocyte count of mice after administration of each compound; type: in vivo; details: four hours after administration, peripheral blood lymphocyte count vs solvent group; for T/C(%) (3 mg/kg): 3 mg/kg peroral; for T/C(%) (10 mg/kg): 10 mg/kg peroral
Method: 2. In Vivo Evaluation of Test Substances (Decrease in Peripheral Blood Lymphocyte Count of Mice after Administration of Each Compound):
There has already been reported that lymphocytes in peripheral blood of mice decrease after administration of an S1P receptor agonist [SCIENCE, 296, 346-349 (2002)]. According to the evaluation method disclosed in the document, test compounds were evaluated.
Four hours after peroral administration, blood (0.5 mL) was collected from each mouse through the posterior vena cava under anesthesia with ether by use of EDTA as an anti-coagulant. The number of lymphocytes in peripheral blood was determined by means of a general hematological tester ADVIA 120 (Bayer Medical). The pharmacological action of each test drug was evaluated as T/C (%) ratio, which is a ratio of average peripheral blood lymphocyte count of a test drug-administered group to that of the solvent-administered group (control group).
(§1) T/C(%)=(average peripheral blood lymphocyte count of a test drug-administered group)/(average peripheral blood lymphocyte count of the solvent-administered group)×100

[2] = system: lymphocytes in peripheral blood; experiment: Decrease in peripheral blood lymphocyte count of rats after administration of each compound; type: in vivo; details: rats (female Lewis), four hours after administration, peripheral blood lymphocyte count vs solvent group; for T/C(%) (3 mg/kg): 3 mg/kg peroral; for T/C(%) (10 mg/kg): 10 mg/kg peroral
Method: 3. In Vivo Evaluation of Test Substances (Decrease in Peripheral Blood Lymphocyte Count of Rats after Administration of Each Compound):
The effect of administration of an S1P receptor agonist on decrease in peripheral blood lymphocyte counts of rats (female Lewis) was evaluated.
Four hours after peroral administration, blood (0.5 mL) was collected from each rat through the cervical vein under anesthesia with ether by use of EDTA as an anti-coagulant. The number of lymphocytes in peripheral blood and blood cell fractions were determined by means of a general hematological tester ADVIA 120 (Bayer Medical). The action of each test drug on reducing peripheral blood lymphocyte count was evaluated as T/C (%) ratio at the time of blood collection, which is a ratio of average peripheral blood lymphocyte count of a test drug-administered group to that of the solvent-administered group (control group).
as §1

[3] = system: production of cytokines such as IL-2; details: in vitro; cited from earlier work
blood lymphocytes = details: phosphorylated in the living body, acts as S1P receptor agonist; cited from earlier work
[4] = clinically tested in transplant and multiple sclerosis; cited from earlier work

T1 sequence (P21453 whole entry): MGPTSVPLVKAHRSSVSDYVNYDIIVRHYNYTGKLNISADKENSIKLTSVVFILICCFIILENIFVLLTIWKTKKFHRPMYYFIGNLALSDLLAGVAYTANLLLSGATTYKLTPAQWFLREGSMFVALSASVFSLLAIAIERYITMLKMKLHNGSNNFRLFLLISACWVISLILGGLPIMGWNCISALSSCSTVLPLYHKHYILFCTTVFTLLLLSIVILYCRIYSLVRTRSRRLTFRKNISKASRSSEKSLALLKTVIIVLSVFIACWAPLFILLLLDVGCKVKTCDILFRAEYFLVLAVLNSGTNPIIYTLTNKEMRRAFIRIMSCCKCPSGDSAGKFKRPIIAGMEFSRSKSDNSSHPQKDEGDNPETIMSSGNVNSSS

SMILES | EC50 (human S1P1 (EDG-1); Table 2) [nM] | T/C(%) (3 mg/kg) [1] | T/C(%) (10 mg/kg) [1] | EC50 (human S1P1 (EDG-1); Table 4) [nM] | T/C(%) (3 mg/kg) [2] | T/C(%) (10 mg/kg) [2] | also measured
N[C@H](CC(=O)O)C(=O)N1CCc2cc(OCc3cc(-c4ccccc4)c(C(F)(F)F)s3)ccc21 [Example 10, (R)-3-Amino-4-oxo-4-[5-[(4-phenyl-5-trifluoromethyl-2-thienyl)methoxy]indolin-1-yl]butyric acid] | 1.3 | 21.6 | 16.3 | – | – | – | –
N[C@H](CC(=O)O)C(=O)N1CCc2cc(OCc3ccc(-c4ccccc4)c(C(F)(F)F)c3)ccc21 [Example 14, (R)-3-Amino-4-oxo-4-[5-[(2-trifluoromethyl-4-biphenyl)methoxy]indolin-1-yl]butyric acid] | 4.4 | 17.0 | 11.1 | – | – | – | –
O=C(O)CCNCC(=O)N1CCc2cc(OCc3cc(-c4ccccc4)c(C(F)(F)F)s3)ccc21 [Example 29, 3-[N-[2-Oxo-2-[5-[(4-phenyl-5-trifluoromethyl-2-thienyl)methoxy]indolin-1-yl]ethyl]amino]propionic acid] | 2.4 | 15.5 | 13.9 | – | – | – | –
CN(CCC(=O)O)CC(=O)N1CCc2cc(OCc3cc(-c4ccccc4)c(C(F)(F)F)s3)ccc21 [Example 30, 3-[N-Methyl-N-[2-oxo-2-[5-[(4-phenyl-5-trifluoromethyl-2-thienyl)methoxy]indolin-1-yl]ethyl]amino]propionic acid] | 2.9 | 21.7 | 11.1 | – | – | – | –
O=C(O)CCNCC(=O)N1CCc2cc(OCc3ccc(-c4ccccc4)c(C(F)(F)F)c3)ccc21 [Example 31, 3-[N-[2-Oxo-2-[5-[(2-trifluoromethyl-4-biphenyl)methoxy]indolin-1-yl]ethyl]amino]propionic acid] | 6.3 | 30.8 | 19.8 | – | – | – | –
CN[C@H](CC(=O)O)C(=O)N1CCc2cc(OCc3ccc(C4CCCCC4)cc3C(F)(F)F)ccc21 [Example 43, 4-[5-[[4-(Cyclohexyl)-2-(trifluoromethyl)phenyl]methoxy]indolin-1-yl]-(3R)-(methylamino)-4-oxobutyric acid] | – | – | – | 8.7 | 34.9 | 25.7 | –
CC(C)c1ccc(COc2ccc3c(c2)CCN3C(=O)CNCCC(=O)O)cc1OC(F)(F)F [Example 97, 3-[N-[2-[5-(4-Isopropyl-3-trifluoromethoxybenzyloxy)indolin-1-yl]-2-oxoethyl]amino]propionic acid hydrochloride] | – | – | – | 4.7 | 22.2 | 17.9 | –
O=C(O)[C@@H]1CCCN(CC(=O)N2CCc3cc(OCc4cc(-c5ccccc5)c(C(F)(F)F)s4)ccc32)C1 [Example 119, 1-[2-Oxo-2-[5-[(4-phenyl-5-trifluoromethyl-2-thienyl)methoxy]indolin-1-yl]ethyl]piperidine-(3R)-carboxylic acid] | – | – | – | 6.2 | 28.7 | 20.7 | –
CN[C@H](CC(=O)O)C(=O)N1CCc2c1ccc(OCc1ccc(C3CCCC3)c(C(F)(F)F)c1)c2C [Example 129, 4-[5-[(4-Cyclopentyl-3-trifluoromethylphenyl)methoxy]-4-methylindolin-1-yl]-(3R)—(N-methylamino)-4-oxobutyric acid] | – | – | – | 4.5 | 18.2 | 17.7 | –
CCCCCCCCc1ccc(CCC(N)(CO)CO)cc1.Cl [FTY720, 2-amino-2-[2-(4-octylphenyl)ethyl]-1,3-propanediol hydrochloride] | – | – | – | – | – | – | inhibitory action on production of cytokines such as IL-2 [3]: no inhibitory action; reduction in blood lymphocytes (blood lymphocytes): induce reduction in blood lymphocytes; adverse side effect [4]: bradycardia is reported as an adverse side effect

Source: US20090324581A1, “HETEROARYLAMIDE LOWER CARBOXYLIC ACID DERIVATIVE” (Daiichi Sankyo company Limited, priority 2006, published 2009)
